Experimental data reported in ChEMBL document CHEMBL1201862, “PubChem BioAssay data set” (2004).
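Protocol summary: plate cells (96-well), add compound at 5 concentrations, incubate 48 h, interpolate endpoints linearly. At the GI50, growth is halved.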 Calls of active or inactive are those of the source. Rule as the data show it: active = GI50 up to about 1.1 µM and inactive = higher.

Columns and labels:
Test in all cases: growth of human tumour cells (NCI), 48 h
U-251 = system: U-251
HT-29 = system: HT-29
NCI-H460 = system: NCI-H460
A498 = system: A498
HOP-92 = system: HOP-92
UACC-62 = system: UACC-62
SNB-75 = system: SNB-75
M14 = system: M14
HCC 2998 = system: HCC 2998
NCI-H23 = system: NCI-H23
CCRF-CEM = system: CCRF-CEM
RXF 393 = system: RXF 393
NCI-H522 = system: NCI-H522
UO-31 = system: UO-31

Row | SMILES | GI50 (U-251) | GI50 (HT-29) | GI50 (NCI-H460) | GI50 (A498) | GI50 (HOP-92) | GI50 (UACC-62) | GI50 (SNB-75) | GI50 (M14) | GI50 (HCC 2998) | GI50 (NCI-H23) | GI50 (CCRF-CEM) | GI50 (RXF 393) | GI50 (NCI-H522) | GI50 (UO-31)
1 | COc1ccc(Br)c(CCCCC(=O)O)c1 | > 100 µM (inactive) | > 100 µM (inactive) | > 100 µM (inactive) | > 100 µM (inactive) | 2.89 µM (inactive) | > 100 µM (inactive) | > 100 µM (inactive) | > 100 µM (inactive) | > 100 µM (inactive) | > 100 µM (inactive) | > 100 µM (inactive) | > 100 µM (inactive) |  | 
2 | S=c1sc2c(n1-c1ccccc1)N=CNC2S (stereo unspecified) | 36.1 µM (inactive) | > 100 µM (inactive) | > 100 µM (inactive) |  | 25.9 µM (inactive) | 43.7 µM (inactive) | 56.6 µM (inactive) | > 100 µM (inactive) | 33.1 µM (inactive) | 63 µM (inactive) | 46.2 µM (inactive) | > 100 µM (inactive) | 45.5 µM (inactive) | 37.3 µM (inactive)
3 | O=C(CC1(O)C(=O)Nc2ccccc21)c1ccco1 (stereo unspecified) |  | > 100 µM (inactive) | > 100 µM (inactive) | > 100 µM (inactive) | > 100 µM (inactive) | > 100 µM (inactive) | 94.8 µM (inactive) | > 100 µM (inactive) |  | > 100 µM (inactive) |  | > 100 µM (inactive) | > 100 µM (inactive) | > 100 µM (inactive)
4 | N#Cc1c(NN)nc(NN)c(C#N)c1-c1ccccc1 |  | > 100 µM (inactive) | > 100 µM (inactive) | > 100 µM (inactive) | > 100 µM (inactive) | > 100 µM (inactive) | > 100 µM (inactive) | > 100 µM (inactive) | > 100 µM (inactive) | > 100 µM (inactive) | > 100 µM (inactive) | 96.6 µM (inactive) |  | > 100 µM (inactive)
5 | COc1ccc2c(c1)[n+]([O-])c(C(N)=O)c(N)[n+]2[O-] | 86.7 µM (inactive) | 61.9 µM (inactive) | 54.6 µM (inactive) | > 100 µM (inactive) | > 100 µM (inactive) |  | 65.6 µM (inactive) | 75.5 µM (inactive) |  | 28.8 µM (inactive) |  |  | 17.1 µM (inactive) | > 100 µM (inactive)
6 | CCOC(=O)C/C(=N\c1cc(C)on1)N(CC)CC.[O-][Cl+3]([O-])([O-])O | > 100 µM (inactive) | > 100 µM (inactive) | > 100 µM (inactive) | > 100 µM (inactive) | > 100 µM (inactive) | > 100 µM (inactive) | > 100 µM (inactive) | > 100 µM (inactive) |  | > 100 µM (inactive) | > 100 µM (inactive) |  | > 100 µM (inactive) | > 100 µM (inactive)
7 | c1ccc2c(CNCCCN3CCN(CCCNCc4cccc5ccccc45)CC3)cccc2c1 | 1.73 µM (inactive) | 1.65 µM (inactive) | 1.41 µM (inactive) | 10.9 µM (inactive) | 1.74 µM (inactive) | 1.79 µM (inactive) | 1.74 µM (inactive) | 1.18 µM (inactive) |  | 11.4 µM (inactive) | 1.24 µM (inactive) | 1.08 µM (active) | 1.59 µM (inactive) | 1.82 µM (inactive)
8 | CCC(=O)c1cn(C)c(=O)c2ccccc12 | > 100 µM (inactive) | > 100 µM (inactive) | > 100 µM (inactive) |  | > 100 µM (inactive) | > 100 µM (inactive) | 36.5 µM (inactive) | > 100 µM (inactive) | > 100 µM (inactive) | > 100 µM (inactive) | > 100 µM (inactive) | > 100 µM (inactive) | > 100 µM (inactive) | > 100 µM (inactive)
